Entries after “also recorded” stand apart in the source; their conditions may differ. Read-outs that look alike come from different tables or passages of the source.
Legend:
[1] = cited from earlier work
[2] = target: CYP2D6 (Homo sapiens, UniProt P10635); details: Table 3, cited from earlier work
[3] = cited from earlier work; remark: listed apart in the source
[4] = test system: healthy volunteers; experiment: ECG QTc assessment after ibutilide infusion in healthy volunteers; format: in vivo, human
Description: ECG analysis is one method of assessing arrhythmias, such as prolonged QT intervals. Ibutilide or any other pharmaceutical agent to be studied, can be assessed using an ECG. […] All ECGs were 12 lead and were recorded on a computer disc and on paper at a speed of 50 mm/sec, with the subject in a stationary, resting, supine position.

[5] = test system: CYP3A; details: Table 3; cited from earlier work
[6] = target: CYP2C9 (Homo sapiens, UniProt P11712); details: Table 3; cited from earlier work
Chain of CYP2C9 (P11712 whole entry): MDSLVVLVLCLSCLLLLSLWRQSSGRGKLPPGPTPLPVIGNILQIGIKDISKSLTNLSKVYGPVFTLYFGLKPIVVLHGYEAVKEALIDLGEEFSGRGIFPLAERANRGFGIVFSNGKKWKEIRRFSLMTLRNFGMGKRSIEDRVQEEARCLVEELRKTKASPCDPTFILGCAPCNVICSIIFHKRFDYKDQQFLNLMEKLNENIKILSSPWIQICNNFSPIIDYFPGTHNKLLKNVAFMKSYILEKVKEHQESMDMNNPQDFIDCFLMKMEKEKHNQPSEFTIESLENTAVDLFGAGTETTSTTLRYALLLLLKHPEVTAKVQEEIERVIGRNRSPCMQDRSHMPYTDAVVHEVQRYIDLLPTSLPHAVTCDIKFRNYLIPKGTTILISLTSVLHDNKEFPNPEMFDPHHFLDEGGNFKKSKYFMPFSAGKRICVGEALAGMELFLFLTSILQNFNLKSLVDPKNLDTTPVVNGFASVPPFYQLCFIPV

[7] = target: CYP2C19 (Homo sapiens, UniProt P33261); details: Table 3; cited from earlier work
Chain of CYP2C19 (P33261 whole entry): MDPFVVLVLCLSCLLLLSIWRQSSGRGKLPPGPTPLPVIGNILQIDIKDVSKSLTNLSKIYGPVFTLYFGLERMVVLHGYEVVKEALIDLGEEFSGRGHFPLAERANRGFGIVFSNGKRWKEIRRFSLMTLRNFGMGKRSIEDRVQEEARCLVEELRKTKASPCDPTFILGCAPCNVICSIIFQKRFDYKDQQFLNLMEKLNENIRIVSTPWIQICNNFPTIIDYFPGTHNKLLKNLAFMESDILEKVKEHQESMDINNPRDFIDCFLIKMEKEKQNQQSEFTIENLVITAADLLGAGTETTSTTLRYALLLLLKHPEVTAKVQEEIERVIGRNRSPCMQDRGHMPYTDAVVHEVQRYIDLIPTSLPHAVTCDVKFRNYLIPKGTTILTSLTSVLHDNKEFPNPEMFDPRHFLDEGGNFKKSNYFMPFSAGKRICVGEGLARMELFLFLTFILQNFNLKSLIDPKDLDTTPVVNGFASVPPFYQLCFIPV

[8] = target: T1, CYP1A2 (Homo sapiens, UniProt P05177); details: Table 3; cited from earlier work
T1 sequence (P05177 1-516): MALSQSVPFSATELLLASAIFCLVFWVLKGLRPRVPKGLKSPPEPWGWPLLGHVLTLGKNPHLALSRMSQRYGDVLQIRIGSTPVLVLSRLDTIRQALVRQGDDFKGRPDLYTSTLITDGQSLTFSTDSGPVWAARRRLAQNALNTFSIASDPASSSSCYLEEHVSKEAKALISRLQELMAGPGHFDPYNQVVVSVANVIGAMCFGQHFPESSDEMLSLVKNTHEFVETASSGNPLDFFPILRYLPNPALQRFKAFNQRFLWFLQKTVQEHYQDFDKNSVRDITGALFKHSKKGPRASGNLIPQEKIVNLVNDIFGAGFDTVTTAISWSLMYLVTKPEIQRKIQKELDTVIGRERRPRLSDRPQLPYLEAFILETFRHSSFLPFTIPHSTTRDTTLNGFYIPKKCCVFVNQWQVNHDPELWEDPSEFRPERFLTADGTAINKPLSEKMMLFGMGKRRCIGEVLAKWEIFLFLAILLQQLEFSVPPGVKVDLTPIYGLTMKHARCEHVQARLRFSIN

[9] = test system: cultured neonatal rat cardiomyocytes; experiment: Spontaneous beating rate of cultured neonatal rat cardiomyocytes; format: cell-based; parameters: Reduction in beating rate / Maximum inhibition of beating activity, drug alone: dose or concentration left out as unconfirmed
Excerpt: Delayed rectifier potassium channels are important components of cardiac repolarization. There are two major delayed rectifier potassium currents, IKr (rapid component) and IKs (slow component). Drugs that block these currents, particularly IKr, slow cardiac repolarization and increase the risk of developing potentially fatal cardiac arrhythmias such as Torsades de Pointes. Moreover, mutations in the genes encoding for delayed rectifier potassium channel proteins have been linked to long QT syndrome, a condition seen in patients at high risk for developing Torsades de Pointes cardiac arrhythmias and sudden death. […] Recently, however, a new compound, chromanol 293B, has been reported to be a relatively selective blocker of IKs (Busch et al., Pflug. Arch. 432: 1094–6 (1996)). In the present report, we have tested this compound using spontaneously beating cultures of neonatal rat cardiomyocytes.
In addition to the different electrophysiological properties of IKr versus IKs that have been described by others, these currents can be distinguished pharmacologically (Sanguinetti et al., J. Gen. Physiol. 96: 195–215 (1990)). […] To determine if pharmacological blockade of delayed rectifier potassium currents influences the spontaneous beating rate of cultured neonatal rat cardiomyocytes, a dose-response curve was generated for chromanol 293B.

[10] = test system: IKs; details: cited from earlier work
[11] = Table 2, FDA / medical literature

Chain of CYP2D6 (P10635 whole entry): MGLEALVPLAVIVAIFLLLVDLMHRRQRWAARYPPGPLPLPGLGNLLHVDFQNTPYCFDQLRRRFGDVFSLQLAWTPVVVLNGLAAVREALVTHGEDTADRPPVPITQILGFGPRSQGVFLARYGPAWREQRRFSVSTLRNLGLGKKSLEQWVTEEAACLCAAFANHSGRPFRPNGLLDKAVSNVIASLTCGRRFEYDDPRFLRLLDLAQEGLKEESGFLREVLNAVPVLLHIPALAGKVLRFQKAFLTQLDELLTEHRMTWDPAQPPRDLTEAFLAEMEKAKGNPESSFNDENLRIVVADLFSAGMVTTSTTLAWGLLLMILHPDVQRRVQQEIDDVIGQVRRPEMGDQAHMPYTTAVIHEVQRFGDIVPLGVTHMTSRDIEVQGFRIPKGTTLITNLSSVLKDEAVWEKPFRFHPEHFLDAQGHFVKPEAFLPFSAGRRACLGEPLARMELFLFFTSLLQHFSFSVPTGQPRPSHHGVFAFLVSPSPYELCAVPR

SMILES	QT ([1]; Table 2, drug labeling)	QT ([1]; Table 3)	TdP [3, 11]	further results
CNCCCN1c2ccccc2CCc2ccccc21 [Desipramine]	Yes	Yes		Interactions: cytochrome P-450 isoform 2D6, substrate or inhibitor [2]: Substrate
O=c1[nH]c2ccccc2n1C1CCN(CCCC(c2ccc(F)cc2)c2ccc(F)cc2)CC1 [Pimozide]	Yes		Yes	
CNCCCC12CCC(c3ccccc31)c1ccccc12 [Maprotiline]	Yes		Yes	
CCCCN(CCCC)CCC(O)c1cc2c(Cl)cc(Cl)cc2c2cc(C(F)(F)F)ccc12 (stereo not drawn) [Halofantrine]	Yes	Yes		Interactions: cytochrome P-450 isoform 2D6, substrate or inhibitor [2]: Inhibitor
C[C@@H]1CN(c2c(F)c(N)c3c(=O)c(C(=O)O)cn(C4CC4)c3c2F)C[C@H](C)N1 [Sparfloxacin]	Yes		Yes	
CCCCCCCN(CC)CCCC(O)c1ccc(NS(C)(=O)=O)cc1 (stereo not drawn) [Ibutilide]	Yes		Yes	Duration of QTc prolonging effect ([4]; 0.003 mg/kg intravenous single dose): almost dissipated by the end of two hours; Mean QTc prolongation over time (AUC, 60 minutes after infusion) ([4]; men versus women by menstrual phase, p<0.05): significantly smaller in men than in women; also recorded: significantly lower for women during the luteal phase and for men; Maximal change in QTc interval after infusion ([4]; men, 0.003 mg/kg intravenous single dose): 54 ± 28 ms; Maximal change in QTc interval after infusion ([4]; women, luteal phase, 0.003 mg/kg intravenous single dose): 53 ± 14 ms; Maximal change in QTc interval after infusion ([4]; women, menstrual phase, 0.003 mg/kg intravenous single dose): 63 ± 13 ms; Maximal change in QTc interval after infusion ([4]; women, ovulation phase, 0.003 mg/kg intravenous single dose): 59 ± 17 ms
CN1CCN(CCCN2c3ccccc3Sc3ccc(C(F)(F)F)cc32)CC1 [Trifluoperazine]	Yes		Yes	
COc1ccc(C(CN(C)C)C2(O)CCCCC2)cc1 (stereo not drawn) [Venlafaxine]	Yes	Yes		Interactions: cytochrome P-450 isoform 2D6, substrate or inhibitor [2]: Substrate
C=C[C@H]1C[N@@]2CC[C@H]1C[C@@H]2[C@@H](O)c1ccnc2ccc(OC)cc12 [Quinidine]	Yes	Yes	Yes	TdP ([3]; Table 3): Yes; Interactions: cytochrome P-450 isoform 3A, substrate or inhibitor [5]: Substrate
CN(C)CCC=C1c2ccccc2CCc2ccccc21 [Amitriptyline]	Yes	Yes	Yes	Interactions: cytochrome P-450 isoform 2C9, substrate or inhibitor [6]: Substrate; Interactions: cytochrome P-450 isoform 2D6, substrate or inhibitor [2]: Substrate; TdP ([3]; Table 3): Yes; Interactions: cytochrome P-450 isoform 2C19, substrate or inhibitor [7]: Substrate; Interactions: cytochrome P-450 isoform 1A2, substrate or inhibitor [8]: Substrate
CN(C)CCC=C1c2ccccc2COc2ccccc21 [Doxepin]	Yes		Yes	
O=C(CCCN1CCC(O)(c2ccc(Cl)cc2)CC1)c1ccc(F)cc1 [Haloperidol]				Interactions: cytochrome P-450 isoform 2D6, substrate or inhibitor ([2]; CYP2D6 inhibitor): Inhibitor; Interactions: cytochrome P-450 isoform 2D6, substrate or inhibitor ([2]; CYP2D6 substrate): Substrate; Interactions: cytochrome P-450 isoform 1A2, substrate or inhibitor [8]: Substrate; Interactions: cytochrome P-450 isoform 3A, substrate or inhibitor [5]: Substrate
CNCCC(Oc1ccc(C(F)(F)F)cc1)c1ccccc1 (stereo not drawn) [Fluoxetine]	Yes	Yes		Interactions: cytochrome P-450 isoform 2C9, substrate or inhibitor [6]: Substrate; Interactions: cytochrome P-450 isoform 2C19, substrate or inhibitor [7]: Inhibitor; Interactions: cytochrome P-450 isoform 3A, substrate or inhibitor [5]: Inhibitor
CN(C)CCCN1c2ccccc2Sc2ccc(Cl)cc21 [Chlorpromazine]	Yes		Yes	
CC(C)N(CCC(C(N)=O)(c1ccccc1)c1ccccn1)C(C)C (stereo not drawn) [Disopyramide]	Yes		Yes	
CCS(=O)(=O)N(C)[C@H]1c2cc(C#N)ccc2OC(C)(C)[C@@H]1O (racemic) [chromanol 293B]				Maximum inhibition of beating activity, drug alone ([9]; 293B alone): 50%; Effect on spontaneous beating rate ([9]; dose-response curve): dose-dependent decrease in beating rate; Reduction in beating rate ([9]; highest drug concentration tested, relative to control): about 50%; Concentrations up to which IKs is selectively blocked ([10]; Busch et al. 1996): 10 to 30 µM; Concentration required to achieve complete blockade of IKs ([10]; guinea pig ventricular myocytes (Busch et al. 1996)): 100 µM
CC1Cc2ccccc2N1NC(=O)c1ccc(Cl)c(S(N)(=O)=O)c1 (stereo not drawn) [Indapamide]	Yes		Maybe—	
CC(=O)N1CCN(c2ccc(OCC3COC(Cn4ccnc4)(c4ccc(Cl)cc4Cl)O3)cc2)CC1 (stereo not drawn) [Ketoconazole]				Interactions: cytochrome P-450 isoform 2C19, substrate or inhibitor [7]: Inhibitor; Interactions: cytochrome P-450 isoform 3A, substrate or inhibitor [5]: Inhibitor
O=C(NCC1CCCCN1)c1cc(OCC(F)(F)F)ccc1OCC(F)(F)F (stereo not drawn) [Flecainide]	Yes	Yes		Interactions: cytochrome P-450 isoform 2D6, substrate or inhibitor [2]: Substrate
OC(Cn1cncn1)(Cn1cncn1)c1ccc(F)cc1F [Fluconazole]				Interactions: cytochrome P-450 isoform 2C9, substrate or inhibitor [6]: Inhibitor; Interactions: cytochrome P-450 isoform 3A, substrate or inhibitor [5]: Inbibilor
COc1ccc(CCN2CCC(Nc3nc4ccccc4n3Cc3ccc(F)cc3)CC2)cc1 [Astemizole]	Yes	Yes	Yes	TdP ([3]; Table 3): Yes; Interactions: cytochrome P-450 isoform 3A, substrate or inhibitor [5]: Substrate
CCC(C)n1ncn(-c2ccc(N3CCN(c4ccc(OCC5COC(Cn6cncn6)(c6ccc(Cl)cc6Cl)O5)cc4)CC3)cc2)c1=O (stereo not drawn) [Itraconazole]				Interactions: cytochrome P-450 isoform 3A, substrate or inhibitor [5]: Inhibitor
CN1CCN(CC/C=C2/c3ccccc3Sc3ccc(S(=O)(=O)N(C)C)cc32)CC1 [Thiothixene]	Yes		Yes	
NC(=O)OCC(COC(N)=O)c1ccccc1 [Felbamate]	Yes?	Yes	Yes	TdP ([3]; Table 3): Yes; Interactions: cytochrome P-450 isoform 2C19, substrate or inhibitor [7]: Inhibitor
CC(C)COCC(CN(Cc1ccccc1)c1ccccc1)N1CCCC1 (stereo not drawn) [Bepridil]	Yes		Yes	
CN(C)CCCN1c2ccccc2CCc2ccc(Cl)cc21 [Clomipramine]				Interactions: cytochrome P-450 isoform 2C19, substrate or inhibitor [7]: Substrate; Interactions: cytochrome P-450 isoform 1A2, substrate or inhibitor [8]: Substrate
OCCN1CCN(CCCN2c3ccccc3Sc3ccc(C(F)(F)F)cc32)CC1 [Fluphenazine]	Yes	Yes	Yes	TdP ([3]; Table 3): Yes
COc1cc(N)c(Cl)cc1C(=O)NC1CCN(CCCOc2ccc(F)cc2)CC1OC (stereo not drawn) [Cisapride]	Yes	Yes	Yes	TdP ([3]; Table 3): Yes; Interactions: cytochrome P-450 isoform 3A, substrate or inhibitor [5]: Substrate

Reference: US7179597B2, “Genetic diagnosis for QT prolongation related adverse drug reactions” (Georgetown University, priority 2000, dated 2007)
